We go through 19 molecules from the Kinase Knowledgebase extract (Sharma et al. 2016).

This experiment deals with EGFR (UniProt P00533). The conditions noted are these: her-14.
EGFR, sequence (P00533 whole entry, looked up): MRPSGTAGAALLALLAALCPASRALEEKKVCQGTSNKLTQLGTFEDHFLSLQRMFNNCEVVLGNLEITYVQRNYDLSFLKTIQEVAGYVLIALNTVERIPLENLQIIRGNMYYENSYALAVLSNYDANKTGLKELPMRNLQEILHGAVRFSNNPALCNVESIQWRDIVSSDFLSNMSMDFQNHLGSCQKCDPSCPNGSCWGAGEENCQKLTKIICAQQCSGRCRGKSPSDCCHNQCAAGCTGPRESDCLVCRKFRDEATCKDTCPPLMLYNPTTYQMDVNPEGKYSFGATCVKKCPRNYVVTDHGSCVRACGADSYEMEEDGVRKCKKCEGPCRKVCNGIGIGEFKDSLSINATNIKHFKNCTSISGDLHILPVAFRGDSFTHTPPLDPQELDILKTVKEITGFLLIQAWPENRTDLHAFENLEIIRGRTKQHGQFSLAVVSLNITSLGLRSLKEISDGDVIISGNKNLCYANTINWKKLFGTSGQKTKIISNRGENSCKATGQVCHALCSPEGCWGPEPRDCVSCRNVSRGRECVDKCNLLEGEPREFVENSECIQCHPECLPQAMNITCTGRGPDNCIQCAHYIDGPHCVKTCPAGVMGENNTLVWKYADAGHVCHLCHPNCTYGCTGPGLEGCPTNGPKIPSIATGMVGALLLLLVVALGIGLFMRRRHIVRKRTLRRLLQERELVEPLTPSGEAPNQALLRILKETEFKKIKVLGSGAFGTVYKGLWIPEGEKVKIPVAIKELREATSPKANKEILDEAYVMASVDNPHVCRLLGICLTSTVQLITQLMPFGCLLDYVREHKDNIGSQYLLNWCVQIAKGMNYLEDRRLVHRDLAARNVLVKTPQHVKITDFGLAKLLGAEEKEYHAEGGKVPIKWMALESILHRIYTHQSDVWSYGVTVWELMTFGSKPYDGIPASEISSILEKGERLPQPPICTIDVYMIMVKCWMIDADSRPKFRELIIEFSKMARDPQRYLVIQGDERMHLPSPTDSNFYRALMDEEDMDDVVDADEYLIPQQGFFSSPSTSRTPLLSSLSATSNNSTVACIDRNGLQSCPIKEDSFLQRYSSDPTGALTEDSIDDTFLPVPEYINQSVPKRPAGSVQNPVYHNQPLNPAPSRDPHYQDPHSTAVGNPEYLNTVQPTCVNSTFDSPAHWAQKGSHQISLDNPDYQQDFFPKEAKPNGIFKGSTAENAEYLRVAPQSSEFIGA

What is called IC50 is the concentration that gives 50% inhibition. `N#C/C(=C\c1cc(O)c(O)c(Br)c1)C(=O)NCCCNC(=O)/C(C#N)=C/c1cc(O)c(O)c(Br)c1`: the IC50 was found to be 7.3 µM.

In the case of `N#C/C(=C\c1cc(O)c(O)c([N+](=O)[O-])c1)C(=O)NCCCNC(=O)/C(C#N)=C/c1cc(O)c(O)c([N+](=O)[O-])c1`, the concentration for half-maximal inhibition (IC50) was 35 µM.

In the case of `N#C/C(=C\c1ccc(O)c(O)c1)S(=O)(=O)/C(C#N)=C/c1ccc(O)c(O)c1`, the IC50 was determined as 2 µM.

Molecule `N#C/C(=C\c1ccc(O)c(O)c1)C(=O)NCC1CCCC(CNC(=O)/C(C#N)=C/c2ccc(O)c(O)c2)C1` (centres undefined) had an IC50 of 12.5 µM.

On to `N#C/C(=C\c1ccc(O)c(O)c1)C(=O)N1CCN(C(=O)/C(C#N)=C/c2ccc(O)c(O)c2)CC1`, for which the IC50 worked out at 10 µM.

`N#C/C(=C\c1ccc(O)c(O)c1)C(=O)NCc1cccc(CNC(=O)/C(C#N)=C/c2ccc(O)c(O)c2)c1` registered an IC50 of 6 µM.

In the case of `N#C/C(=C\c1ccc(O)c(O)c1)C(=O)NCCCCNC(=O)/C(C#N)=C/c1ccc(O)c(O)c1`, the IC50 was found to be 5 µM.

In the case of `N#C/C(=C\c1ccc(O)c(O)c1)C(=O)NC1CCC(CC2CCC(NC(=O)/C(C#N)=C/c3ccc(O)c(O)c3)CC2)CC1` (centres undefined), the IC50 is 20.3 µM.

Molecule `N#C/C(=C\c1ccc(O)c(O)c1)C(=O)NCCCCCNC(=O)/C(C#N)=C/c1ccc(O)c(O)c1` returned an IC50 of 9 µM.

Turning to `N#C/C(=C\c1ccc(O)c(O)c1)C(=O)NCN1CCN(C(=O)/C(C#N)=C/c2ccc(O)c(O)c2)CC1`, the concentration for half-maximal inhibition (IC50) stood at 5.8 µM.

For the molecule `N#C/C(=C\c1ccc(O)c(O)c1)C(=O)NCCCCCCNC(=O)/C(C#N)=C/c1ccc(O)c(O)c1`, the IC50 came to 5 µM.

`N#C/C(=C\c1ccc(O)c(O)c1)C(=O)NCCN1CCN(C(=O)/C(C#N)=C/c2ccc(O)c(O)c2)CC1` registered an IC50 of 6.2 µM.

`COc1cc(/C=C(\C#N)C(=O)NCCCCNC(=O)/C(C#N)=C/c2cc(Br)c(O)c(OC)c2)cc(Br)c1O` displayed an IC50 of 3 µM.

In turn, `COc1cc(/C=C(\C#N)C(=O)NCCCCNC(=O)/C(C#N)=C/c2cc(OC)c(O)c([N+](=O)[O-])c2)cc([N+](=O)[O-])c1O` returned an IC50 of more than 80 µM.

`N#C/C(=C\c1ccc(O)c(O)c1)C(=O)NC1CCCCC1NC(=O)/C(C#N)=C/c1ccc(O)c(O)c1` (centres undefined) had an IC50 of 4 µM.

With `N#C/C(=C\c1cc(O)c(O)c(O)c1)C(=O)NCCCCNC(=O)/C(C#N)=C/c1cc(O)c(O)c(O)c1`, the IC50 was 5 µM.

In the case of `N#C/C(=C\c1ccc(O)c(O)c1)C(=O)NCCNC(=O)/C(C#N)=C/c1ccc(O)c(O)c1`, the IC50 was 10 µM.

In turn, `N#C/C(=C\c1ccc(O)c(O)c1)C(=O)NCCCN1CCN(CCCNC(=O)/C(C#N)=C/c2ccc(O)c(O)c2)CC1` gave an IC50 of 7 µM.

Regarding `N#C/C(=C\c1ccc(O)c(O)c1)C(=O)NCCCCCCCCCCNC(=O)/C(C#N)=C/c1ccc(O)c(O)c1`, the IC50 was 25 µM.
